Reference: patent US20180311217A1, “METHODS OF TREATMENT AND COMPOSITIONS WITH XANTHINE OXIDASE INHIBITORS” (Takeda Pharmaceuticals U.S.A., Inc., priority 2013, published 2018)
Like-named read-outs stand apart in the source and are kept apart here.

Experiment: Study TMX-99-001: febuxostat plasma pharmacokinetics
Format: in vivo, human
Parameters: AUC24/Dose: unit not given here
Conditions: mean; for Cmin: terminal phase at or before 24 hours; for MRT inf / AUC / partial AUC from 0 to 4 hours: human, plasma, oral; for partial AUC from 0 to 4 hours: read-out: AUC0-4

## Cc1nc(-c2ccc(OCC(C)C)c(C#N)c2)sc1C(=O)O [Febuxostat, 2-[3-cyano-4-(2-methylpropoxy)phenyl]-4-methylthiazole-5-carboxylic acid]
IR 50 mg single dose
  Tmin: 22.00 h
  Cmin: 0.01598 µg/mL
IR 70 mg single dose
  AUC24: 6.94821 µg·h/mL
  AUC24/Dose: 99.26
  Cmax: 2.68991 µg/mL
  Cmax/dose: 38.43 ng/mL/mg
  Tmax: 1.10 h
  Tmin: 23.20 h
  Cmin: 0.02381 µg/mL
IR 90 mg single dose
  AUC0-4: 6.893 µg·h/mL
  AUC24/Dose: 104.36
  Cmax: 4.06163 µg/mL
  Cmax/dose: 45.13 ng/mL/mg
  Tmin: 24.00 h
  Cmin: 0.02753 µg/mL
IR 120 mg single dose
  AUC24: 11.95993 µg·h/mL
  AUC24/Dose: 99.67
  Cmax: 5.30758 µg/mL
  Cmax/dose: 44.23 ng/mL/mg
  Tmax: 1.11 h
  Tmin: 24.00 h
  Cmin: 0.04149 µg/mL
IR 160 mg single dose
  AUC24: 22.28212 µg·h/mL
  AUC24/Dose: 139.26
  Cmax: 8.77107 µg/mL
  Cmax/dose: 54.82 ng/mL/mg
  Tmax: 0.80 h
  Tmin: 22.80 h
  Cmin: 0.07988 µg/mL
IR 180 mg single dose
  AUC24: 23.95454 µg·h/mL
  AUC24/Dose: 133.08
  Cmax: 8.04876 µg/mL
  Cmax/dose: 44.72 ng/mL/mg
  Tmin: 24.00 h
  Cmin: 0.07573 µg/mL
IR 240 mg single dose
  AUC24: 34.97626 µg·h/mL
  AUC24/Dose: 145.73
  Cmax: 11.26303 µg/mL
  Cmax/dose: 46.93 ng/mL/mg
  Tmax: 0.94 h
  Tmin: 24.00 h
  Cmin: 0.0713 µg/mL
30 mg, IR 30 mg BID
  MRT inf: 18.6 h
30 mg, IR 30 mg BID, following AM and PM dose, read-out: AUC4-24
  AUC: 3.98 µg·h/mL
30 mg, IR 30 mg BID, following AM and PM dose, read-out: AUC24
  AUC: 6.22 µg·h/mL
30 mg, IR 30 mg BID, following AM dose
  partial AUC from 0 to 4 hours: 2.24 µg·h/mL
30 mg, IR 30 mg single dose
  MRT inf: 4.99 h
  partial AUC from 0 to 4 hours: 1.9 µg·h/mL
30 mg, IR 30 mg single dose, read-out: AUC4-24
  AUC: 0.629 µg·h/mL
30 mg, IR 30 mg single dose, read-out: AUC24
  AUC: 2.52 µg·h/mL
40 mg, IR 40 mg single dose
  MRT inf: 4.54 h
  partial AUC from 0 to 4 hours: 3.35 µg·h/mL
50 mg, IR 50 mg single dose
  MRT inf: 5 h
50 mg, IR 50 mg single dose, read-out: AUC4-24
  AUC: 1.26 µg·h/mL
70 mg, IR 70 mg single dose
  MRT inf: 5 h
  partial AUC from 0 to 4 hours: 5.28 µg·h/mL
70 mg, IR 70 mg single dose, read-out: AUC4-24
  AUC: 1.67 µg·h/mL
90 mg, IR 90 mg single dose
  MRT inf: 5.81 h
90 mg, IR 90 mg single dose, read-out: AUC4-24
  AUC: 2.5 µg·h/mL
90 mg, IR 90 mg single dose, read-out: AUC24
  AUC: 9.39 µg·h/mL
120 mg, IR 120 mg single dose
  MRT inf: 5.43 h
  partial AUC from 0 to 4 hours: 8.59 µg·h/mL
120 mg, IR 120 mg single dose, read-out: AUC4-24
  AUC: 3.37 µg·h/mL
160 mg, IR 160 mg single dose
  MRT inf: 4.65 h
  partial AUC from 0 to 4 hours: 16.4 µg·h/mL
160 mg, IR 160 mg single dose, read-out: AUC4-24
  AUC: 5.84 µg·h/mL
180 mg, IR 180 mg single dose
  MRT inf: 5.53 h
  partial AUC from 0 to 4 hours: 16.8 µg·h/mL
180 mg, IR 180 mg single dose, read-out: AUC4-24
  AUC: 7.15 µg·h/mL
240 mg, IR 240 mg single dose
  MRT inf: 4.32 h
  partial AUC from 0 to 4 hours: 25.1 µg·h/mL
240 mg, IR 240 mg single dose, read-out: AUC4-24
  AUC: 9.9 µg·h/mL
